Test results published in patent US20110009493A1 (priority 2008, published 2011).
Like-named read-outs stand apart in the source and are kept apart here.

What was measured:
[1] = tested on: Pseudomonas aeruginosa; assay: Bacterial testing, ISO-GRID membrane filter system; assay type: cell-based; conditions: 400 ppm hard water; for Results (percent kill) / Results Log10 Reduction: 1 minute contact, 5% organic soil, bacteria 6.81 log10 (CFU/g); for Kill of Pseudomonas aeruginosa (in words): 1 minute, 5% soil
Description: • Bacteria (gram negative): Pseudomonas aeruginosa • Pathogenesis: Opportunistic pathogen in humans, cause of 1 in 10 nosocomial infections^1, causes wound, blood, burn, urinary tract, lung and ear infections. ^1http://textbookofbacteriology.net/pseudomonas.html • Concentration of Bacteria: 6.81 log10 (CFU/g) • Solution Contact Time: 1 minute • Dilution media: hard water (400 ppm) • Bio burden: 5% organic soil
The tests were performed using the ISO-GRID™ membrane filter system (Neogen Corp., Lansing, Mich., USA) according to a slightly modified procedure described in the ISO-GRID™ Methods Manual (3rd Ed.; QA Life Sciences, Inc., San Diego, Calif., USA; 1999).

[2] = tested on: Mycobacterium bovis; assay type: cell-based
[3] = ten minutes contact, 5% fetal bovine serum
[4] = ten minutes contact, 5% fetal bovine serum, 5.8*10^5 CFU/carrier

Compound: Didecyldimethylammonium bicarbonate/carbonate [compound 3]
- Results (percent kill) [1]: 87.4%
- Results Log10 Reduction [1]: 5.95 Log10

Compound: O=Cc1ccccc1C=O [OPA, orthophthalaldehyde]
- Kill of Pseudomonas aeruginosa (in words) [1]: Neither OPA nor DDABC alone were sufficient to kill all
- Kill of Mycobacterium bovis (in words) [2, 3]: neither OPA, nor DDABC alone was sufficient to provide complete kill

Compound: didecyldimethylammonium bicarbonate/carbonate [DDABC]
- Kill of Pseudomonas aeruginosa (in words) [1]: Neither OPA nor DDABC alone were sufficient to kill all
- Kill of Mycobacterium bovis (in words) [2, 3]: neither OPA, nor DDABC alone was sufficient to provide complete kill

Compound: O=Cc1ccccc1C=O [2., Orthophthalaldehyde]
- Pass/Fail (Intermediate 30 day read) [2, 4]: Fail
- Results (Intermediate 30 day read) [2, 4]: 1/10

Compound: didecyldimethylammomum bicarbonate/carbonate [1.]
- Pass/Fail (Intermediate 30 day read) [2]: Fail
- Results (Intermediate 30 day read) [2]: 1/10

Compound: O=Cc1ccccc1C=O [compound 4, Orthophthalaldehyde]
- Results (percent kill) [1]: 40.2%
- Results Log10 Reduction [1]: 2.74 Log10
